Each structure is given as a SMILES string.

Assay [1] addresses KRAS G12D (Homo sapiens (Human), UniProt P01116, G12D). As to the kind of experiment: KRAS G12D LoEnz Biochemical Assay, BODIPY-GDP Exchange TR-FRET (SOS1-mediated nucleotide exchange). The settings on record: read-out: KRas (G12D) GDP HTRF IC50. In general terms: TR-FRET usually uses a lanthanide donor and a delayed reading to cut background.
Assay [2] deals with T1, KRAS WT (Homo sapiens (Human), UniProt P01116). As to the kind of experiment: KRAS WT Biochemical Assay, BODIPY-GDP Exchange TR-FRET (Example 501; 3 nM KRAS WT, 3 nM SOS1, 60-minute incubation). The settings on record: read-out: KRas(wt) GDP HTRF IC50. Summed up: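 SOS1-mediated exchange assay: 3 nM biotin-KRAS WT with terbium-streptavidin, started with 3 nM SOS1 and 300 nM BODIPY-GDP, HEPES pH 7.5 with MgCl2. TR-FRET (520/490 nm) read after 60 min; normalized to DMSO and full-inhibition control, IC50 from 4-parameter Hill fit.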

For assay [3], the system named is PC-9 (KRAS wild type human lung adenocarcinoma cell line). As to the kind of experiment: KRAS 3D-Cell Proliferation Assay, PC-9 (CellTiter-Glo 3D, 7 days). The class given is cell-based. Particulars: Homo sapiens, PC-9, 168 h, PC-9 3D culture, read-out: Prolif PC9 3D ATP IC50. Here is the method:
Example 503: KRAS 3D-Cell Proliferation Assays. Cellular potencies of compounds are assessed by evaluating inhibition of proliferation in 3D cultures of homozygous mutant KRAS G12D human pancreatic cell lines (AsPC-1 and HPAC) as compared to a KRAS wild type human lung adenocarcinoma cell line (PC-9 and/or H1975). Cells are seeded into 384-well black round-bottom, ultra-low attachment assay plates in 50 uL cell growth medium (RPMI-1640 with 10% fetal bovine serum and 2 mM L-glutamine). After overnight incubation at 37° C. and 5% CO2, compounds solubilized in DMSO are added as dilution series to the wells in a total volume of 150 nL (0.3% DMSO final). The cells are incubated for 7 days at 37° C. and 5% CO2. Cell proliferation is quantitated by addition of 40 uL/well of CellTiter-GloO 3D (Promega), and the well contents are mixed 20× at high speed using liquid handling automation workstation (Bravo with 384-well head) and centrifuged at 1500 rpm for 2 minutes to eliminate bubbles. This reagent in combination with mechanical disruption releases the cellular ATP to promote activity in a luciferase-based enzyme/substrate chemiluminescent detection system. After a 30-minute incubation under ambient conditions with shaking and an additional 10 minutes without shaking, the luminescence is read on a plate reader (e.g. EnVision [PerkinElmer]). The results are normalized to percent inhibition based on the following control samples: DMSO (0% inhibition) and 1 uM staurosporine (100% inhibition). The normalized luminescence results are plotted against compound concentration, and the data are fit to a 4-parameter Hill equation to determine the IC50 values.

The target in assay [4] is T1, KRAS WT. As to the kind of experiment: KRAS WT Biochemical Assay, BODIPY-GDP Exchange TR-FRET (Example 502; 0.06 nM KRAS WT, 15 nM GDP, 300 nM SOS1, 120-minute incubation). Particulars: read-out: KRas HTRF IC50. Summed up: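 Biotin-tagged recombinant KRAS WT (0.06 nM) preloaded with 15 nM GDP and Tb-streptavidin, 10 min RT, then exchange started with 300 nM SOS1 plus 300 nM BODIPY-GDP in HEPES pH 7.5 buffer with MgCl2. TR-FRET 520/490 ratio read after 120 min; normalized to DMSO and full-inhibition control; IC50 from 4-parameter fit.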

T1 sequence (P01116-2 other isoform, or with tags, fused parts or gaps): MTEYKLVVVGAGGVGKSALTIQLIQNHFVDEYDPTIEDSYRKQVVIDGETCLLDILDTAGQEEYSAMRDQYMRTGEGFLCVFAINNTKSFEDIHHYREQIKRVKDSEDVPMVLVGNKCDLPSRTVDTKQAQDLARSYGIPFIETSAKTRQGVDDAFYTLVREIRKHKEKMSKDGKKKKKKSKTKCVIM
Sequence of KRAS G12D (P01116-2 other isoform, or with tags, fused parts or gaps G12D): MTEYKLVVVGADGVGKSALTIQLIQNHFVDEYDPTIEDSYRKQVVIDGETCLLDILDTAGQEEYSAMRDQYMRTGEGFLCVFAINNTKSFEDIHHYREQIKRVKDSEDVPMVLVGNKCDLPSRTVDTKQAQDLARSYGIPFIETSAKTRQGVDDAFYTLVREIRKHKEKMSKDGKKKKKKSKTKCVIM

Regarding `C#Cc1cccc2cc(O)cc(-c3nc4c5c(nc(OC[C@@]67CCCN6C[C@H](F)C7)nc5c3F)N3C[C@H]5CC[C@H](N5)[C@H]3[C@H](C)O4)c12` [Compound 11, 5-ethynyl-4-((5S,5aS,6S,9R)-1-fluoro-12-(((2R,7aS)-2-fluorotetrahydro-1H-pyrrolizin-7a(5H)-yl)methoxy)-5-methyl-5a,6,7,8,9,10-hexahydro-5H-4-oxa-3,10a,11,13,14-pentaaza-6,9-methanonaphtho[1,8-ab]heptalen-2-yl)naphthalen-2-ol], the IC50 in assay [1] came to 0.06 nM; in assay [2] it was 0.38 nM; in assay [3], 20000 nM.
Take `C[C@@H]1Oc2nc(-c3nc(N)cc4ccccc34)c(F)c3nc(OC[C@@]45CCCN4C[C@H](F)C5)nc(c23)N2C[C@H]3CC[C@H](N3)[C@@H]12` [Compound 41, 1-((5S,5aS,6S,9R)-1-fluoro-12-(((2R,7aS)-2-fluorotetrahydro-1H-pyrrolizin-7a(5H)-yl)methoxy)-5-methyl-5a,6,7,8,9,10-hexahydro-5H-4-oxa-3,10a,11,13,14-pentaaza-6,9-methanonaphtho[1,8-ab]heptalen-2-yl)isoquinolin-3-amine]: the IC50 in assay [1] came out at 6.35 nM; in assay [2], 296 nM; in assay [3], 20000 nM.
On to `C#Cc1cccc2cncc(-c3nc4c5c(nc(OC[C@@]67CCCN6C[C@H](F)C7)nc5c3F)N3C[C@H]5CC[C@H](N5)[C@H]3[C@H](C)O4)c12` [Compound 39, (5S,5aS,6S,9R)-2-(5-Ethynylisoquinolin-4-yl)-1-fluoro-12-(((2R,7aS)-2-fluorotetrahydro-1H-pyrrolizin-7a(5H)-yl)methoxy)-5-methyl-5a,6,7,8,9,10-hexahydro-5H-4-oxa-3,10a,11,13,14-pentaaza-6,9-methanonaphtho[1,8-ab]heptalene], for which the half-maximal inhibitory concentration (IC50) in assay [1] is 1.78 nM; in assay [2] it was 76.1 nM; in assay [3], 20000 nM.
The matching figures for `Cc1cc(N)nc(-c2nc3c4c(nc(OC[C@@]56CCCN5C[C@H](F)C6)nc4c2F)N2C[C@H]4CC[C@H](N4)[C@H]2CO3)c1C(F)(F)F` [Compound 44, 6-((5aS,6S,9R)-1-fluoro-12-(((2R,7aS)-2-fluorotetrahydro-1H-pyrrolizin-7a(5H)-yl)methoxy)-5a,6,7,8,9,10-hexahydro-5H-4-oxa-3,10a,11,13,14-pentaaza-6,9-methanonaphtho[1,8-ab]heptalen-2-yl)-4-methyl-5-(trifluoromethyl)pyridin-2-amine]: 0.68 nM, 59 nM and 20000 nM.
For the compound `C#Cc1c(F)ccc2cccc(-c3nc4c5c(ncnc5c3F)N3C[C@H]5CC[C@H](N5)[C@H]3[C@H](C)O4)c12` [Compound 56, (5S,5aS,6S,9R)-2-(8-ethynyl-7-fluoronaphthalen-1-yl)-1-fluoro-5-methyl-5a,6,7,8,9,10-hexahydro-5H-4-oxa-3,10a,11,13,14-pentaaza-6,9-methanonaphtho[1,8-ab]heptalene], the IC50 in assay [1] came to 942 nM; in assay [2], 46500 nM; in assay [3] it was 20000 nM.
`C[C@@H]1Oc2nc(-c3cc(N)c(F)cc3C(F)(F)F)c(F)c3nc(OC[C@]45CCN4CC(F)(F)C5)nc(c23)N2C[C@H]3CC[C@H](N3)[C@@H]12` [Compound 71, 5-((5S,5aS,6S,9R)-12-(((R)-3,3-Difluoro-1-azabicyclo[3.2.0]heptan-5-yl)methoxy)-1-fluoro-5-methyl-5a,6,7,8,9,10-hexahydro-5H-4-oxa-3,10a,11,13,14-pentaaza-6,9-methanonaphtho[1,8-ab]heptalen-2-yl)-2-fluoro-4-(trifluoromethyl)aniline]: the IC50 in assay [1] turned out to be 3.51 nM; in assay [4], 313 nM; in assay [3], 20000 nM.
As for `C[C@@H]1Oc2nc(-c3cnccc3C(F)(F)F)c(F)c3nc(OC[C@]45CCN4CC(F)(F)C5)nc(c23)N2C[C@H]3CC[C@H](N3)[C@@H]12` [Compound 78, (5S,5aS,6S,9R)-12-(((R)-3,3-Difluoro-1-azabicyclo[3.2.0]heptan-5-yl)methoxy)-1-fluoro-5-methyl-2-(4-(trifluoromethyl)pyridin-3-yl)-5a,6,7,8,9,10-hexahydro-5H-4-oxa-3,10a,11,13,14-pentaaza-6,9-methanonaphtho[1,8-ab]heptalene], the IC50 amounted to 867 nM in assay [1], 200000 nM in assay [4] and 20000 nM in assay [3].
Consider `C#Cc1cccc2cc(O)cc(-c3nc4c5c(ncnc5c3F)N3C[C@H]5CC[C@H](N5)[C@H]3[C@H](C)O4)c12` [Compound 54, 5-ethynyl-4-((5S,5aS,6S,9R)-1-fluoro-5-methyl-5a,6,7,8,9,10-hexahydro-5H-4-oxa-3,10a,11,13,14-pentaaza-6,9-methanonaphtho[1,8-ab]heptalen-2-yl)naphthalen-2-ol], for which the values for the IC50 in assay [1], in assay [2] and in assay [3] were 17.8 nM, 1980 nM and 20000 nM, respectively.
As to `C[C@@H]1Oc2nc(-c3nc(N)ccc3C(F)(F)F)c(F)c3nc(OC[C@@]45CCCN4C[C@H](F)C5)nc(c23)N2C[C@H]3CC[C@H](N3)[C@@H]12` [Compound 85, 6-((5S,5aS,6S,9R)-1-fluoro-12-(((2R,7aS)-2-fluorotetrahydro-1H-pyrrolizin-7a(5H)-yl)methoxy)-5-methyl-5a,6,7,8,9,10-hexahydro-5H-4-oxa-3,10a-11,13,14-pentaaza-6,9-methanonaphtho[1,8-ab]heptalen-2-yl)-5-(trifluoromethyl)pyridin-2-amine], the IC50 worked out at 3.28 nM in assay [1], 678 nM in assay [4] and 20000 nM in assay [3].
The matching figures for `C[C@@H]1Oc2nc(-c3nc(N)c(F)cc3C(F)(F)F)c(F)c3nc(OC[C@]45CCN4CC(F)(F)C5)nc(c23)N2C[C@H]3CC[C@H](N3)[C@@H]12` [Compound 87, 6-((5S,5aS,6S,9R)-12-(((R)-3,3-Difluoro-1-azabicyclo[3.2.0]heptan-5-yl)methoxy)-1-fluoro-5-methyl-5a,6,7,8,9,10-hexahydro-5H-4-oxa-3,10a,11,13,14-pentaaza-6,9-methanonaphtho[1,8-ab]heptalen-2-yl)-3-fluoro-5-(trifluoromethyl)pyridin-2-amine]: 68.9 nM, 16100 nM and 20000 nM.
The matching figures for `C#Cc1c(F)ccc2cc(O)cc(-c3nc4c5c(nc(OC[C@@]67CCCN6C[C@H](F)C7)nc5c3F)N3C[C@H]5CC[C@H](N5)[C@H]3CO4)c12` [Compound 81, 5-Ethynyl-6-fluoro-4-((5aS,6S,9R)-1-fluoro-12-(((2R,7aS)-2-fluorotetrahydro-1H-pyrrolizin-7a(5H)-yl)methoxy)-5a,6,7,8,9,10-hexahydro-5H-4-oxa-3,10a,11,13,14-pentaaza-6,9-methanonaphtho[1,8-ab]heptalen-2-yl)naphthalen-2-ol]: 0.085 nM, 0.448 nM and 20000 nM.
Take `Cc1cc(N)nc(-c2nc3c4c(nc(OC[C@@]56CCCN5C[C@H](F)C6)nc4c2F)N2C[C@H]4CC[C@H](N4)[C@H]2[C@H](C)O3)c1C(F)(F)F` [Compound 43, 6-((5S,5aS,6S,9R)-1-Fluoro-12-(((2R,7aS)-2-fluorotetrahydro-1H-pyrrolizin-7a(5H)-yl)methoxy)-5-methyl-5a,6,7,8,9,10-hexahydro-5H-4-oxa-3,10a,11,13,14-pentaaza-6,9-methanonaphtho[1,8-ab]heptalen-2-yl)-4-methyl-5-(trifluoromethyl)pyridin-2-amine]: the IC50 in assay [1] came out at 0.598 nM; in assay [2], 16.6 nM; in assay [3], 20000 nM.

A word on the IC50: it is the midpoint of a concentration-inhibition curve.
